Tested on: T1, TanHcw
T1 construct: C-terminal His-tag, pET23a, E. coli BL21(DE3) pLysS; 39 kDa on gel
Assay: gallic acid release, rhodanine chromogen at […] nm; Lineweaver-Burk
Format: biochemical, Herbaspirillum camelliae
Details: 0.1-2.0 mM substrate

Km (pH 6.0, 30 °C) [µM] | SMILES | Km (pH 7.0, 40 °C) [µM]
820 ± 20 | COC(=O)c1cc(O)c(O)c(O)c1 [MG, Methyl gallate] | –
– | O=C(O[C@@H]1Cc2c(O)cc(O)cc2O[C@@H]1c1cc(O)c(O)c(O)c1)c1cc(O)c(O)c(O)c1 [EGCG, (–)–epigallocatechin-3-gallate] | 300 ± 10
– | O=C(O[C@@H]1Cc2c(O)cc(O)cc2O[C@@H]1c1ccc(O)c(O)c1)c1cc(O)c(O)c(O)c1 [ECG, (–)–epicatechin-3-gallate] | 330 ± 10
